Read-outs that look alike come from different tables or passages of the source.

In assay [1] the target is KRAS-G12V (Homo sapiens, UniProt P01116, G12V). The assay can be described thus: SOS-catalyzed nucleotide exchange assay (Procedure A, TR-FRET), KRAS-G12V. It is filed as biochemical. The procedure, abridged: (§1)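 Compounds (10-point, 3-fold) were preincubated 60 min at room temperature with a biotinylated RAS/Bodipy-GDP/Tb-streptavidin TR-FRET complex. Exchange was started with human SOS plus 3 mM GTP. RAS/SOS: G12C 3/40 nM, WT 1/40 nM, NRAS 1.25/40 nM (60 min); G12V 1.25/160 nM (90 min). The 520/495 ratio was fit four-parameter.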
For orientation: Time-resolved FRET reads energy transfer from a long-lived donor to a nearby acceptor.

The target of assay [2] is KRAS-WT (Homo sapiens, UniProt P01116). The assay can be described thus: SOS-catalyzed nucleotide exchange assay (Procedure A, TR-FRET), KRAS-WT. It is filed as biochemical. The procedure, abridged:
as §1

For assay [3], the system named is AsPC-1 cells. The assay can be described thus: Cellular phospho-ERK assay, AsPC-1 cells (homozygous KRAS-G12D). The format is cell-based. As to conditions: Homo sapiens, read-out: AsPC1 pERK IC50. The procedure, abridged: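 Readout: p-ERK/total ERK ratio measured by Alpha SureFire Ultra multiplex in lysates after 2 h compound exposure (37 °C, 5% CO2). Dosing ran 10 points, 1:3 dilutions, highest final concentration 30 μM. IC50 values derived by four-parameter logistic regression.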

Assay [4] deals with KRAS-G12D (Homo sapiens, UniProt P01116, G12D). The assay can be described thus: SOS-catalyzed nucleotide exchange assay (Procedure A, TR-FRET), KRAS-G12D. The format is biochemical. The procedure, abridged:
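Signal ratio (520/495 nm, excitation 340 nm) reports Bodipy-GDP retention on biotinylated RAS after SOS-catalyzed exchange with 3 mM GTP. SOS was 40 nM, except 160 nM for G12V. Room-temperature exchange lasted 60 min (90 min for G12V), following a 60 min compound preincubation.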

The mark [5] stands for this setting: nucleotide exchange, read-out: KRAS G12V GNE IC50.
Setting [6] is: nucleotide exchange, read-out: KRAS WT GNE IC50.
[7] abbreviates: nucleotide exchange, read-out: KRAS G12D GNE IC50.
[8] abbreviates: KRAS G12V GNE IC50, nucleotide exchange.
Setting [9] is: KRAS WT GNE IC50, nucleotide exchange.
Where [10] appears, read: ASPC1, 2 hours compound incubation.
Where [11] appears, read: KRAS G12D GNE IC50, nucleotide exchange.
The mark [12] stands for this setting: ASPC1, 2 h, 2 hours compound incubation.

Sequence of KRAS-G12D (P01116 with tags, fused parts or gaps isoform P01116-2 G12D): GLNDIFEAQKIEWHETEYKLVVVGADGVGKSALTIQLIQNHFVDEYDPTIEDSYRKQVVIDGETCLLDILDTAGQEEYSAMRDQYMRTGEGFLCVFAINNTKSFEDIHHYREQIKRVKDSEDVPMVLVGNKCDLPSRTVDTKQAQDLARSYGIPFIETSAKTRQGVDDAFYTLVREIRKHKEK
Sequence of KRAS-G12V (P01116 with tags, fused parts or gaps isoform P01116-2 G12V): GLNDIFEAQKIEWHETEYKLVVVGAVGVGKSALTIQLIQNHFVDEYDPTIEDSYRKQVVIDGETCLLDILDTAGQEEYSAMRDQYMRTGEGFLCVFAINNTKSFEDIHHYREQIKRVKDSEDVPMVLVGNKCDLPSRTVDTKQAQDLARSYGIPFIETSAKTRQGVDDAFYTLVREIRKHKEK
Sequence of KRAS-WT (P01116 with tags, fused parts or gaps isoform P01116-2): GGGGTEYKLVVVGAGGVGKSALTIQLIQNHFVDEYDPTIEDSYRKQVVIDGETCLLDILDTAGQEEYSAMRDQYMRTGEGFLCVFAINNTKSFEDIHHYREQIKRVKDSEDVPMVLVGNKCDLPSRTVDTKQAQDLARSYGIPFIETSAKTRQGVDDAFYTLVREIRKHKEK

Usually IC50 stands for the concentration that inhibits the measured activity by half. Turning to `Cc1cc2[nH]ncc2c(-c2nncc3c2sc2nc(OC[C@@]45CCCN4C[C@H](F)C5)nc(N4CCOC[C@@](C)(O)C4)c23)c1-c1ccco1` [Ex-281, (6S)-4-(2-(((2R,7aS)-2-fluorotetrahydro-1H-pyrrolizin-7a(5H)-yl)methoxy)-8-(5-(furan-2-yl)-6-methyl-1H-indazol-4-yl)pyrimido[5′,4′:4,5]thie-no[2,3-d]pyridazin-4-yl)-6-methyl-1,4-oxazepan-6-ol], the IC50 in assay [1] (setting [5]) amounted to 11.7 nM; in assay [2] (setting [6]) it was 31.2 nM; in assay [3] (ASPC1, 2 h, KRAS-G12D, 2 hours) it was 356 nM; in assay [4] (setting [7]) it was 8.24 nM.
The matching figures for `C[C@@]1(O)COCCN(c2nc(OC[C@@]34CCCN3C[C@H](F)C4)nc3sc4c(-c5cc(O)cc(Cl)c5C5CC5)nccc4c23)C1` [Ex-124, (S)-4-(8-(3-chloro-2-cyclopropyl-5-hydroxyphenyl)-2-(((2R,7aS)-2-fluorotetrahydro-1H-pyrrolizin-7a(5H)-yl)methoxy)pyri-do[4′,3′:4,5]thieno[2,3-d]pyrimidin-4-yl)-6-methyl-1,4-oxazepan-6-ol]: 24.1 nM, 39.4 nM, 151 nM and 11.1 nM.
For `C[C@@]1(O)COCCN(c2nc(OC[C@@]34CCCN3C[C@H](F)C4)nc3sc4c(-c5c(C(F)F)c(C(F)(F)F)cc6[nH]ncc56)nccc4c23)C1` [Ex-61, (6S)-4-(8-(5-(difluoromethyl)-6-(trifluoromethyl)-1H-indazol-4-yl)-2-(((2R,7aS)-2-fluorotetrahydro-1H-pyrrolizin-7a(5H)-yl)methoxy)pyrido[4′,3′:4,5]thi-eno[2,3-d]pyrimidin-4-yl)-6-methyl-1,4-oxazepan-6-ol], the IC50 is 236 nM in assay [1] (setting [5]); 231 nM in assay [2] (setting [6]); 1280 nM in assay [3] (ASPC1, 2 h, KRAS-G12D, 2 hours); 127 nM in assay [4] (setting [7]).
With `C[C@@]1(O)COCCN(c2nc(OC[C@@]34CCCN3C[C@H](F)C4)nc3sc4c(-c5c6c(cc7[nH]ncc57)CCC6=C(F)F)nccc4c23)C1` [Ex-177, (6S)-4-(8-(5-(difluoro-methylene)-1,5,6,7-tetrahydrocyclopenta [f]indazo1-4-yl)-2-(((2R,7aS)-2-fluoro-tetrahydro-1H-pyr-rolizin-7a(5H)-yl)-methoxy)pyrido[4′,3′: 4,5]thieno[2,3-d]pyr-imidin-4-yl)-6-methyl-1,4-oxazepam-6-ol], the half-inhibitory concentration (IC50) in assay [1] (setting [8]) is 61.7 nM; in assay [2] (setting [9]), 77.4 nM; in assay [3] (setting [10]), 248 nM; in assay [4] (setting [11]), 23.1 nM.
As to `C[C@@]1(O)COCCN(c2nc(OC[C@]3(CN4CCC[C@H]4CF)CC3(F)F)nc3sc4c(-c5c(C6(F)CC6)c(Cl)cc6[nH]ncc56)nccc4c23)C1` [Ex-247, (6S)-4-(8-(6-chloro-5-(1-fluorocyclopropyl)-1H-indazol-4-yl)-2-(((R)-2,2-difluoro-1-(((S)-2-(fluoromethyl)pyrrolidin-1-yl)methyl)cyclopropyl)metho-xy)pyrido[4′,3′:4,5]thieno[2,3-d]pyrimidin-4-yl)-6-methyl-1,4-oxazepan-6-ol], the IC50 in assay [1] (setting [5]) stood at 320 nM; in assay [2] (setting [6]) it was 352 nM; in assay [3] (setting [12]), 977 nM; in assay [4] (setting [7]), 74.6 nM.
With `Cc1cc2[nH]ncc2c(-c2nccn3c2cc2nc(OC[C@@]45CCCN4C[C@H](F)C5)nc(N4CCOC[C@@](C)(O)C4)c23)c1C1CC1` [Ex-295, (S)-4-(9-(5-cyclopropyl-6-methyl-1H-indazol-4-yl)-2-(((2R,7aS)-2-fluorotetrahydro-1H-pyrrolizin-7a(5H)-yl)methoxy)pyrazino[1′,2′:1,5]pyrrolo[3,2-d]pyrimidin-4-yl)-6-methyl-1,4-oxazepan-6-ol], the IC50 came out at 98.2 nM in assay [1] (setting [5]); 185 nM in assay [2] (setting [6]); 1900 nM in assay [3] (ASPC1, 2 h, KRAS-G12D, 2 hours); 72.1 nM in assay [4] (setting [7]).
In the case of `C[C@H]1CN(C[C@@]2(COc3nc(N4CCOC[C@@](C)(O)C4)c4c(n3)sc3c(-c5c(C6(F)CC6)c(Cl)cc6[nH]ncc56)nccc34)CC2(F)F)CCO1` [Ex-244, (6S)-4-(8-(6-chloro-5-(1-fluorocyclopropyl)-1H-indazol-4-yl)-2-(((R)-2,2-difluoro-1-(((S)-2-methylmorpholino)methyl)cy-clopropyl)methoxy)pyrido[4′, 3′:4,5]thieno[2,3-d]pyrimidin-4-yl)-6-methyl-1,4-oxazepan-6-ol], the IC50 in assay [1] (setting [5]) was determined as 207 nM; in assay [2] (setting [6]) it was 699 nM; in assay [3] (setting [12]), 711 nM; in assay [4] (setting [7]) it was 140 nM.
For `C[C@@]1(O)COCCN(c2nc(OC[C@@]34CCCN3C[C@H](F)C4)nc3sc4c(-c5c(C(F)(F)F)c(C(F)F)cc6[nH]ncc56)nccc4c23)C1` [Ex-155, (6S)-4-(8-(6-(difluoromethyl)-5-(trifluoromethyl)-1H-indazol-4-yl)-2-(((2R,7aS)-2-fluorotetrahydro-1H-pyrrolizin-7a(5H)-yl)methoxy)pyrido[4′,3′:4,5]thieno[2,3-d]pyrimidin-4-yl)-6-methyl-1,4-oxazepan-6-ol] the same measures were 211 nM, 350 nM, 927 nM and 158 nM.
For `C[C@@]1(O)COCCN(c2nc(OC[C@@]34CCCN3C[C@H](F)C4)nc3sc4c(-c5c6cc(F)ccc6cc6[nH]ncc56)nccc4c23)C1` [Ex-172, (6S)-4-(8-(6-fluoro-1H-benzo[f]indazol-4-yl)-2-(((2R,7aS)-2-fluorotetrahydro-1H-pyrrolizin-7a(5H)-yl)-methoxy)pyrido[4′,3′: 4,5]thieno[2,3-d]pyr-imidin-4-yl)-6-methyl-1,4-oxazepam-6-ol], the IC50 in assay [1] (setting [8]) stood at 49.2 nM; in assay [2] (setting [9]), 72.4 nM; in assay [3] (setting [10]) it was 252 nM; in assay [4] (setting [11]) it was 34.1 nM.
As for `Cn1ccc2cc3[nH]ncc3c(-c3nccc4c3sc3nc(OC[C@@]56CCCN5C[C@H](F)C6)nc(N5CCOC[C@@](C)(O)C5)c34)c21` [Ex-46], the half-maximal inhibitory concentration (IC50) in assay [1] (setting [5]) is 157 nM; in assay [2] (setting [6]), 166 nM; in assay [3] (ASPC1, 2 h, KRAS-G12D, 2 hours) it was 934 nM; in assay [4] (setting [7]), 72.4 nM.
The matching figures for `Cc1cc2[nH]ncc2c(-c2nccc3c2C2(CC2)c2nc(OC[C@@]45CCCN4C[C@H](F)C5)nc(N4CCOC[C@@](C)(O)C4)c2-3)c1C(F)(F)F` (single isomer, unassigned) [Ex-307]: 24.7 nM, 22.4 nM, 258 nM and 8.96 nM.
On to `C[C@@]1(O)COCCN(c2nc(OC[C@]3(CN4C[C@@H]5C[C@H]4CO5)CC3(F)F)nc3sc4c(-c5c(C6(F)CC6)c(Cl)cc6[nH]ncc56)nccc4c23)C1` [Ex-236, (6S)-4-(2-(((R)-1-(((15,4S)-2-oxa-5-azabicyclo[2.2.1]heptan-5-yl)methyl)-2,2-difluorocyclopropyl)methoxy)-8-(6-chloro-5-(1-fluorocyclopropyl)-1H-indazol-4-yl)pyrido[4′,3′:4,5]thieno[2,3-d]pyrimidin-4-yl)-6-methyl-1,4-oxazepan-6-ol], for which the IC50 came out at 34.8 nM in assay [1] (setting [5]), 121 nM in assay [2] (setting [6]), 242 nM in assay [3] (setting [12]) and 16.2 nM in assay [4] (setting [7]).
For `C[C@@]1(O)COCCN(c2nc(OC[C@]3(CN4CCOC5(CC5)C4)CC3(F)F)nc3sc4c(-c5c(C6(F)CC6)c(Cl)cc6[nH]ncc56)nccc4c23)C1` [Ex-264, (6S)-4-(2-(((R)-1-((4-oxa-7-azaspiro[2.5]octan-7-yl)methyl)-2,2-difluorocyclopropyl)methoxy)-8-(6-chloro-5-(1-fluorocyclopropyl)-1H-indazol-4-yl)pyrido[4′,3′:4,5]thieno[2,3-d]pyrimidin-4-yl)-6-methyl-1,4-oxazepan-6-ol] the same measures were 215 nM, 351 nM, 618 nM and 63.9 nM.
Regarding `CC1CCc2ccc(F)c(-c3nccc4c3sc3nc(OC[C@@]56CCCN5C[C@H](F)C6)nc(N5CCOC[C@@](C)(O)C5)c34)c21` (single isomer, unassigned) [Ex-118], the IC50 in assay [1] (setting [5]) came out at 123 nM; in assay [2] (setting [6]) it was 432 nM; in assay [3] (ASPC1, 2 h, KRAS-G12D, 2 hours), 1060 nM; in assay [4] (setting [7]), 150 nM.
The matching figures for `CC1CCc2cccc(-c3nccc4c3sc3nc(OC[C@@]56CCCN5C[C@H](F)C6)nc(N5CCOC[C@@](C)(O)C5)c34)c21` (single isomer, unassigned) [Ex-117]: 96.1 nM, 218 nM, 720 nM and 73.6 nM.

The values are drawn from US20260176289A1, “SMALL MOLECULE INHIBITORS OF KRAS PROTEINS” (Merck Sharp & Dohme LLC, priority 2022, published 2026).
